# Key:
# [1] = system: mice; conditions: single dose 150 mg/kg; Lerner and Harrison 1990; cited from earlier work
# [2] = molecular target: T1, Dl-FRIL (Lablab purpureus, UniProt Q9ZTA9); conditions: Mo et al., Glycobiology 9:173-179,1999; cited from earlier work
# T1 sequence (Q9ZTA9 9-272): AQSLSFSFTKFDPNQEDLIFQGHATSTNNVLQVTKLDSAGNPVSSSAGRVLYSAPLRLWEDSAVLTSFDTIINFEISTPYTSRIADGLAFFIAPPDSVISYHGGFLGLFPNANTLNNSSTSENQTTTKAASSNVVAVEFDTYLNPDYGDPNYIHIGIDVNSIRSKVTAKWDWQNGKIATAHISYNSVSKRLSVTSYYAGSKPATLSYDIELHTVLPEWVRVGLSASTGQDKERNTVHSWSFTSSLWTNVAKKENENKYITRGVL
# [3] = molecular target: FLT3 receptor on FLT3-transfected 3T3 cells (chimeric murine FLT3/human Fms receptor or full length human receptor, not told apart); assay: cell-based or functional assay
compound,measurement,setting,value
"O=c1[nH]cc(F)c(=O)[nH]1 [5-FU, 5-fluorouracil]",reduction of bone marrow cellularity,[1],> 90%
"OC[C@H]1O[C@H](O[C@H]2O[C@H](CO)[C@@H](O)[C@H](O)[C@H]2O)[C@H](O)[C@@H](O)[C@@H]1O [α,α-trehalose]",potency greater than mannose,[2],3.6 fold
"Pv-FRIL (Phaseolus vulgaris FRIL), native, purified from PHA-LCM or from red kidney bean extract","Specific Activity (u/mg) in the Flt3 3T3 assay, after the Superdex 75 step",[3],244000 units/mg
